Experimental data published in US20120258975A1, “Potent Small Molecule Inhibitors of Autophagy, and Methods of Use Thereof” (Shanghai Institute of Organic Chemistry, priority 2009, published 2012).

How the values were obtained:
Assay type in all cases: cell-based
[1] = system: MCF-7 cells; test: MCF-7 cells under glucose-free condition
Description: FIG. 11 depicts results showing that selected cancer cell lines are sensitive to MBCQ and its active derivatives under glucose free condition. BT549 cells were treated with indicated concentrations of C43 for 24 h in normal DMEM (A) or under serum free condition (B). The cell viability was assayed by MTT or harvested for western blotting assay with anti-LC3 (C). MCF-7 cells were treated with DMSO (1‰), C43 (10 μM) in DMEM with (D) or without (E) glucose, for 12 h. The cell viability was assayed by MTT or images (F). […] Bcap-37 cells were treated with indicated concentrations of C43 for 24 h in normal DMEM (H) or under serum free condition (I). The cell viability was assayed by MTT or images (J) And the cell lysates treated with C43 for indicated time were analyzed by western blotting using anti-PARP (L) or anti-LC3 (M) and α-tubulin was used as a loading control. (K) Cell cycle profile of Bcap-37 treated with C43. Bcap-37 cells were treated with DMSO (0.1%) (left figure), C43 (10 μM) (right figure) for 12 h. The cells were then fixed with 70% ethanol, stained with propidium iodide (PI, 40 μg/mL) and treated with RNase enzyme (200 μg/mL) solution for 30 min in dark. Cell cycle profile and possible apoptotic death were statistics analyzed by flow cytometer. […]

[2] = system: USP10/Beclin1 and USP13/Beclin1 interaction; test: USP10 or USP13 / GFP-Beclin1 co-immunoprecipitation in 293T cells; conditions: 10 μM, 4 h, with MG132
Description: To further confirm that USP10 and USP13 are the deubiquitinating proteases of Vps34 complexes, the interaction of Flag-USP10/GFP-Beclin1 and Myc-USP13/GFP-Beclin1 in 293T cells was assayed with immunoprecipitation. […] Furthermore, this may provide a mechanism to explain why beclin1 is frequently lost in many kinds of cancers as the loss of beclin1 may lead to a reduction of p53 by inhibiting its deubiquitining proteases.

[3] = system: MDA-MB-231 cells; test: MDA-MB-231 cell survival under serum free condition
Description: Since autophagy is activated under metabolic stress conditions to support cell survival, compounds were tested to determine if they promote cell death under starvation condition.

[4] = system: Bcap-37 cells; test: Bcap-37 cells, normal and glucose free condition
Description: FIG. 11 depicts results showing that selected cancer cell lines are sensitive to MBCQ and its active derivatives under glucose free condition. BT549 cells were treated with indicated concentrations of C43 for 24 h in normal DMEM (A) or under serum free condition (B). The cell viability was assayed by MTT or harvested for western blotting assay with anti-LC3 (C). MCF-7 cells were treated with DMSO (1‰), C43 (10 μM) in DMEM with (D) or without (E) glucose, for 12 h. The cell viability was assayed by MTT or images (F). […] Bcap-37 cells were treated with indicated concentrations of C43 for 24 h in normal DMEM (H) or under serum free condition (I). The cell viability was assayed by MTT or images (J) And the cell lysates treated with C43 for indicated time were analyzed by western blotting using anti-PARP (L) or anti-LC3 (M) and α-tubulin was used as a loading control. (K) Cell cycle profile of Bcap-37 treated with C43. Bcap-37 cells were treated with DMSO (0.1%) (left figure), C43 (10 μM) (right figure) for 12 h. The cells were then fixed with 70% ethanol, stained with propidium iodide (PI, 40 μg/mL) and treated with RNase enzyme (200 μg/mL) solution for 30 min in dark. Cell cycle profile and possible apoptotic death were statistics analyzed by flow cytometer.
To explore the mechanism by which C43 induces the death of Bcap-37 cells, the DNA content was analyzed by FACS.

[5] = system: ubiquitin-proteasomal degradation pathway; test: Proteasomal degradation pathway (pEGFP-CL1, polyubiquitination)
Description: In addition, the effect of MBCQ on proteasomal degradation pathway using pEGFP-CL1, a GFP fusion with a short-lived peptide was determined (Bence, N. F., Sampat, R. M., and Kopito, R. R. (2001). Impairment of the ubiquitin-proteasome system by protein aggregation. Science 292, 1552-1555).

[6] = system: H4 cells; test: Electron microscopy of H4 cells
Description: FIG. 3 depicts electron microscopy analysis of the effect of MBCQ on autophagy. H4 cells were treated with 0.1% DMSO (vehicle), rapamycin (0.2 μM), MBCQ (10 μM), or MBCQ and rapamycin for 4 h. The cells were processed and imaged by EM.
The ultra-structure of cells treated with rapamycin was determined in the presence or absence of MBCQ. […] Treatment of rapamycin led to the formation of a large numbers of autophagosomes with characteristic double membrane.

SMILES | autophagy (western blot, LC3) ([1]; basal and glucose-free condition) | cell survival ([1]; glucose-free condition) | interaction of Flag-USP10 with GFP-Beclin1 [2] | cell survival [3] | autophagy (western blot) ([4]; basal and glucose-free conditions) | sensitivity of cells to compound ([4]; glucose free condition) | DNA content by FACS ([4]; glucose-free condition) | proliferation ([4]; in the presence of 10% bovine serum) | general levels of polyubiquitination [5] | levels of pEGFP-CL1 [5] | cell morphology ([6]; MBCQ alone for 4 h) | double membrane autophagosomes ([6]; rapamycin (0.2 μM) and MBCQ (10 μM) together, 4 h)
Fc1ccc(CNc2ncnc3ccc(F)cc23)cc1 [C43, 6-fluoro-N-(4-fluorobenzyl)quinazolin-4-amine] | inhibited autophagy | reduced the survival | impair the interaction | reduced the survival | inhibited autophagy | highly sensitive | induced a peak of sub-diploid DNA | inhibited the proliferation | – | – | – | –
Clc1ccc2ncnc(NCc3ccc4c(c3)OCO4)c2c1 [MBCQ] | – | – | – | – | – | – | – | – | no effect on the general levels of polyubiquitination | does not affect the levels of pEGFP-CL1 | morphologically similar to that control | conspicuously absent
